Results as given in patent US6831079B1, “Vasopressin agonist formulation and process” (American Cyanamid Company, priority 1999, dated 2004).

Molecular target: Vasopressin V2 (Rattus norvegicus, UniProt Q00788)
Test: Vasopressin V2 agonist effects in normal conscious water-loaded rats
Assay type: in vivo
Parameters: from tissue; host or cells: whole living Sprague-Dawley rat; the receptor is the animal's own (renal, by own knowledge)
Settings: Sprague-Dawley (CD) rats; for Osmolality (% Increase): change in osmolality as percent of control; for Urine Volume (% decrease): vs. control
From the text: Vasopressin V2 Agonist Effects of Test Compounds in Normal Conscious Water-loaded Rats
Male or female normotensive Sprague-Dawley rats (Charles River Laboratories, Inc., Kingston, N.Y.) of 350-500 g body weight were supplied with standard rodent diet (Purina Rodent Lab. Chow 5001) and water ad libitum. On the day of test, rats were placed individually into metabolic cages equipped with devices to separate the feces from the urine and containers for collection of urine. […] The vehicle used was 20% dimethylsulfoxide (DMSO) in 2.5% preboiled corn starch. Thirty minutes after dosing the test compound, rats were gavaged with water at 30 ml/kg into the stomach using a feeding needle. During the test, rats were not provided with water or food. Urine was collected for four hours after dosing of the test compound. At the end of four hours, urine volume was measured. Urinary osmolality was determined using a Fiske One-Ten Osmometer (Fiske Associates, Norwood, Mass., 02062) or an Advanced CRYOMATIC Osmometer, Model 3C.2 (Advanced Instruments, Norwood, Mass.). Determinations of Na^+, K^+ and Cl^− ion were carried out using ion specific electrodes in a Beckman SYNCHRON EL-ISE Electrolyte System analyzer. The urinary osmolality should increase proportionally. In the screening test, two rats were used for each compound. If the difference in the urine volume of the two rats was greater than 50%, a third rat was used.

[1] = 10 mg/kg oral, urine collected four hours

Chain of Vasopressin V2 (Q00788 whole entry): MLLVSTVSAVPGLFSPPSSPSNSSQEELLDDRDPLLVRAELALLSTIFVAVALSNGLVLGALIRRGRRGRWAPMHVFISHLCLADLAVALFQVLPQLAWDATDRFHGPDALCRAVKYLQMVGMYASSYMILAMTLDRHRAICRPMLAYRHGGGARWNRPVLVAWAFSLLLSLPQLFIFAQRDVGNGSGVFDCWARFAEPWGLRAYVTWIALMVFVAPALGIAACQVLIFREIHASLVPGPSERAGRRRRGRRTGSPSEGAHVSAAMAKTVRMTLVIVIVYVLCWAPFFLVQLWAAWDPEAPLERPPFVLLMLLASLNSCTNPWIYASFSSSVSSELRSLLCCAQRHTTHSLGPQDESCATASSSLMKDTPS

Osmolality (% Increase) (10 mg/kg oral) [%] | Urine Volume (% decrease) [1] [%] | Osmolality (% Increase) (1 mg/kg) | Urine Volume (% decrease) (1 mg/kg) | Compound
322 | 80 | – | – | CC(=O)c1ccc(C(=O)N2Cc3cccn3Cc3ccccc32)cc1 [Example 22, 1-[4-(5H,11H-Pyrrolo[2,1-c][1,4]benzodiazepine-10-carbonyl)-phenyl]-ethanone]
125 | 31 | – | – | COc1cc(-n2ccc(C)n2)ccc1C(=O)N1Cc2cccn2Cc2ccccc21 [Example 107, [2-Methoxy-4-(3-methyl-pyrazol-1-yl)-phenyl](5H,11H-pyrrolo[2,1-c][1,4]-benzodiazepin-10-yl) Methanone]
490 | 82 | – | – | Cc1n[nH]c(-c2ccc(C(=O)N3Cc4cccn4Cc4ccccc43)c(Cl)c2)n1 [Example 81, [2-Choro-4-(5-methyl-2H-[1,2,4]triazol-3-yl)phenyl]-(5H,11H-pyrrolo[2,1-c][1,4]benzodiazepine-10-carbonyl)-methanone]
183 | 76 | – | – | CCCn1ccc(-c2ccc(C(=O)N3Cc4cccn4Cc4ccccc43)cc2)n1 [Example 27, [4-(1-Propyl-1H-pyrazol-3-yl)-phenyl]-(5H,11H-pyrrolo[2,1-c][1,4]-benzodiazepin-10-yl)-methanone]
37 | 75 | – | – | CCCCn1ccc(-c2ccc(C(=O)N3Cc4cccn4Cc4ccccc43)cc2)n1 [Example 28, [4-(1-Butyl-1H-pyrazol-3-yl)-phenyl]-(5H,11H-pyrrolo[2,1-c][1,4]-benzodiazepin-10-yl)-methanone]
279 | 54 | – | – | CCn1ccc(-c2ccc(C(=O)N3Cc4cccn4Cc4ccccc43)cc2)n1 [Example 26, [4-(1-Ethyl-1H-pyrazol-3-yl)-phenyl]-(5H,11H-pyrrolo[2,1-c][1,4]-benzodiazepin-10-yl)-methanone]
663 | 88 | – | – | [2-Chloro-4-(3-methyl-4-ethynyl-phenyl) (5H,11H-pyrrolo[2,1-c][1,4]-benzodiazepin-10-yl)-methanone [Example 123]
300 | 68 | – | – | Cc1ccn(-c2ccc(C(=O)N3Cc4ccnn4Cc4ccccc43)c(C(F)(F)F)c2)n1 [Example 95, [4-(3-Methylpyrazol-1-yl)-2-trifluoromethylphenyl]-(5H,11H-pyrazolo[5,1-c]-[1,4]benzodiazepin-10-yl)-methanone]
229 | 66 | – | – | Cn1cc(-c2ccc(C(=O)N3Cc4cccn4Cc4ccccc43)c(Cl)c2)cn1 [Example 115, [2-Chloro-4-(1-methyl-1H-pyrazol-4-yl)phenyl) (5H,11H-pyrrolo[2,1-c][1,4]-benzodiazepin-10-yl)-methanone]
– | – | 152% (1 mg/kg) | 25% (1 mg/kg) | Cc1ccn(-c2ncc(C(=O)N3Cc4cccn4Cc4ccccc43)c(C(F)(F)F)n2)n1 [Example 20, [2-(3-Methyl-pyrazol-1-yl)-4-trifluoromethyl-pyrimidin-5-yl]-(5H,11H-pyrrolo[2,1-c][1,4]benzodiazepin-10-yl)-methanone]
324 | 49 | – | – | O=C(c1ccc(-n2cccn2)cc1)N1Cc2cccn2Cc2ccccc21 [Example 58, [4-(Pyrazol-1-yl)-phenyl]-(5H,11H-pyrrolo[2,1-c][1,4]benzodiazepin-10-yl)-methanone]
436 | 76 | – | – | Cc1nc(-c2ccc(C(=O)N3Cc4cccn4Cc4ccccc43)c(Cl)c2)n(C)n1 [Example 85, 4-[(2,5-Dimethyl-2H-[1,2,4]triazol-3-yl)-2-chloro-phenyl]-(5H,11H-pyrrolo[2,1-c][1,4]benzodiazepin-10-carbonyl)-methanone]
183 | 46 | – | – | O=C(c1ccc(-c2ccn(C(=O)c3ccccc3-c3ccccc3)n2)cc1)N1Cc2cccn2Cc2ccccc21 [Example 40, {4-[1-(Biphenyl-2-carbonyl)-1H-pyrazol-3-yl]-phenyl}-(5H,11H-pyrrolo[2,1-c][1,4]benzodiazepin-10-yl)-methanone]
95 | 21 | – | – | Cc1ccn(-c2ccc(C(=O)N3Cc4cccn4Cc4ccccc43)c(O)c2)n1 [Example 109]
305 | 66 | – | – | COCn1ccc(-c2ccc(C(=O)N3Cc4cccn4Cc4ccccc43)cc2)n1 [Example 29, [4-(1-methoxymethyl-1H-pyrazol-3-yl)-phenyl]-(5H,11H-pyrrolo[2,1-c][1,4]-benzodiazepin-10-yl)-methanone]

The remaining lines, values behind:

Compound | Osmolality (% Increase) (10 mg/kg oral) [%] | Urine Volume (% decrease) [1] [%] | Osmolality (% Increase) (1 mg/kg) | Urine Volume (% decrease) (1 mg/kg)
Cc1cnn(-c2ccc(C(=O)N3Cc4cccn4Cc4ccccc43)c(Cl)c2)c1 [Example 11] | 285 | 70 | – | –
N#Cc1ccc(C(=O)N2Cc3cccn3Cc3ccccc32)c(Cl)c1 [Example 77, 3-Chloro-4-(5H,11H-pyrrolo[2,1-c][1,4]benzodiazepine-10-carbonyl)-benzonitrile] | 90 | 13 | – | –
Cc1n[nH]c(-c2ccc(C(=O)N3Cc4cccn4Cc4ccccc43)cc2)n1 [Example 50, [4-(5-Methyl-2H-[1,2,4]triazol-3-yl)-phenyl]-(5H,11H-pyrrolo[2,1-c][1,4]-benzodiazepin-10-yl)-methanone] | 223 | 53 | – | –
Cc1cn(-c2ccc(C(=O)N3Cc4cccn4Cc4ccccc43)c(Cl)c2)cn1 [Example 12, [2-Chloro-4-(4-methyl-imidazol-1-yl)-phenyl]-(5H,11H-pyrrolo[2,1-c][1,4]benzodiazepin-10-yl)-methanone] | 330 | 69 | – | –
O=C(c1ccc(-n2ccc(C(F)(F)F)n2)cc1Cl)N1Cc2cccn2Cc2ccccc21 [Example 13, [2-Chloro-4-(3-trifluoromethyl-pyrazol-1-yl)-phenyl]-(5H,11H-pyrrolo[2,1-c][1,4]benzodiazepin-10-yl)-methanone] | 229 | 50 | – | –
O=C(c1ccc(-n2cncn2)cc1Cl)N1Cc2cccn2Cc2ccccc21 [Example 14, [2-Chloro-4-(1,2,4-triazol-1-yl)-phenyl]-(5H,11H-pyrrolo[2,1-c][1,4]benzodiazepin-10-yl)-methanone] | 406 | 86 | – | –
Cc1cc(C)n(-c2ccc(C(=O)N3Cc4cccn4Cc4ccccc43)cc2)n1 [Example 61, [4-(3,5-Dimethyl-pyrazol-1-yl)-phenyl]-(5H,11H-pyrrolo[2,1-c][1,4]-benzodiazepin-10-yl)-methanone] | 245 | 59 | – | –
Cc1ccn(-c2ccc(C(=O)N3Cc4ccnn4Cc4ccccc43)c(Cl)c2)n1 [Example 116, [2-Chloro-4-(3-methyl-pyrazol-1-yl)-phenyl]-(4H,10H-pyrazolo[5,1-c][1,4]-benzodiazepin-5-yl)-methanone] | 256 | 66 | – | –
O=C(c1ccc(-n2cccn2)cc1Cl)N1Cc2cccn2Cc2ccccc21 [Example 16, (2-Chloro-4-pyrazol-1-yl-phenyl)(5H,11H-Pyrrolo[2,1-c][1,4]benzodiazepin-10-yl)-methanone] | 400 | 88 | – | –
O=C(c1ccc(-n2cccn2)cc1C(F)(F)F)N1Cc2cccn2Cc2ccccc21 [Example 4, (4-Pyrazol-1-yl-2-trifluoromethyl-phenyl)-(5H,11H-pyrrolo[2,1-c][1,4]benzodiazepin-10-yl)-methanone] | 225 | 57 | – | –
O=C(c1ccc(-c2ccn(C(=O)C3CC3)n2)cc1)N1Cc2cccn2Cc2ccccc21 [Example 32, [4-(1-Cyclopropanecarbonyl-1H-pyrazol-3-yl)-phenyl]-(5H,11H-pyrrolo[2,1-c][1,4]benzodiazepin-10-yl)-methanone] | 373 | 77 | – | –
Cc1ccnn1-c1ccc(C(=O)N2Cc3cccn3Cc3ccccc32)c(Cl)c1 [Example 9B] | 168 | 21 | – | –
Cn1ccc(-c2ccc(C(=O)N3Cc4ccnn4Cc4ccccc43)cc2)n1 [Example 120A, [4-(1-Methyl-1H-pyrazol-3-yl)phenyl](4H,10H-pyrazolo[5,1c][1,4]-benzodiazepin-5-yl)methanone] | 269 | 66 | – | –
Cc1ccn(-c2ccc(C(=O)N3Cc4cccn4Cc4ccccc43)cc2)n1 [Example 59, [4-(3-Methyl-pyrazol-1-yl)-phenyl]-(5H,11H-pyrrolo[2,1-c][1,4]-benzodiazepin-10-yl)-methanone] | 607 | 80 | – | –
Cn1ccc(-c2ccc(C(=O)N3Cc4cccn4Cc4ccccc43)cc2)n1 [Example 25, [4-(1-Methyl-1H-pyrazolyl-3-yl)-phenyl]-(5H,11H-pyrrolo[2,1-c][1,4]-benzodiazepin-10-yl)-methanone] | 979 | 87 | – | –
